Experimental data published in ChEMBL document CHEMBL1201862, “PubChem BioAssay data set” (2004).
Calls of active or inactive are those of the source.

Assays:
[1] = target: Cytochrome P450 2C19 (Homo sapiens, UniProt P33261); test: Cytochrome panel assay with activity outcomes. Panel member name: p450-cyp2c19 Compounds with AC50 equal or less than 10 uM are considered active; format: functional; conditions: read-out: AC50
[2] = target: T1, Cytochrome P450 1A2 (Homo sapiens, UniProt P05177)
T1 sequence (P05177 whole entry): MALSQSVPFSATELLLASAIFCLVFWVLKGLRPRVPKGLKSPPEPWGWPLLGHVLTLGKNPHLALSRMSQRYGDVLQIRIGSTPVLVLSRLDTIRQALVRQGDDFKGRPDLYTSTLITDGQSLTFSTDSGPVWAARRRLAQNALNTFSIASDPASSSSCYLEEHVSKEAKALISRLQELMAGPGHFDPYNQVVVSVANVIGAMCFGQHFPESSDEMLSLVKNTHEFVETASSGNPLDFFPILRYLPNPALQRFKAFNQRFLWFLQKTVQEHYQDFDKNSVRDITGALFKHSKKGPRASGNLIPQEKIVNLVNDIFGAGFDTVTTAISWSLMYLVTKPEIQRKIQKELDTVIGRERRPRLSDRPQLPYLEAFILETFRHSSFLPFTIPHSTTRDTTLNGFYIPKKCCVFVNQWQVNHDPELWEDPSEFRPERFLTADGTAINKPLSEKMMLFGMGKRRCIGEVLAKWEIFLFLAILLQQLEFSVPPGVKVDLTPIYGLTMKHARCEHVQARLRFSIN

[3] = target: Cytochrome P450 3A4 (Homo sapiens, UniProt P08684);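 note: CYP3A4 tested as one member of a cytochrome P450 panel screen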
[4] = target: Cytochrome P450 2C9 (Homo sapiens, UniProt P11712)
[5] = test system: Streptococcus sp. 'group A'; test: growth inhibition of control SK(-) GAS strain, dose response, counter-screen for streptokinase expression inhibitor project, luminescence, kanamycin, BacTiterGlo, confirmation (AID 1900); format: functional, organism-based
[6] = target: T2, Streptokinase A (Streptococcus pyogenes serotype M1, UniProt P10520); test: S. pyogenes streptokinase expression inhibitors, potency, dose response, plasminogen activation absorbance, OD405 (AID 1914); format: functional, Streptococcus pyogenes M1 GAS;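 note: secreted streptokinase activity via plasminogen activation per viability signal from cell pellet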
T2 sequence (P10520 whole entry): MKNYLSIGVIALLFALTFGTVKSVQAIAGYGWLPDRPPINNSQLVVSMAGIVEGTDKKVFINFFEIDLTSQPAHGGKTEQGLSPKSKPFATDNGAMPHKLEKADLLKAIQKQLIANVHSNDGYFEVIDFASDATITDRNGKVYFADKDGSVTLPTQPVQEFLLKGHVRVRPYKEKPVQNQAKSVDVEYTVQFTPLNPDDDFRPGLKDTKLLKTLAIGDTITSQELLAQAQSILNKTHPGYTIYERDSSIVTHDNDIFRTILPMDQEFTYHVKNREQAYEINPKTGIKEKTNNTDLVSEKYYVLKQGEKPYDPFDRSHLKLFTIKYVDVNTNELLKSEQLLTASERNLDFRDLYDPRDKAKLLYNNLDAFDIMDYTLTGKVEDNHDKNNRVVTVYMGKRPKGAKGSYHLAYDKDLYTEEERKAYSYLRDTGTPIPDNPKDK

[7] = test system: Streptococcus; test: Group A Streptococcus viability loss, dose response, counter-screen for streptokinase expression inhibitor project, luminescence, BacTiterGlo (AID 1915); format: functional, organism-based;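 note: potency for reduction of bacterial viability or growth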
[8] = Luminescence Cell-Based Dose Retest to Confirm Inhibitors of Cancer Stem Cells. [Related pubchem assays (depositor defined):AID2717, AID2721]; format: functional; conditions: Homo sapiens
[9] = target: Cytochrome P450 2D6 (Homo sapiens, UniProt P10635);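 note: CYP2D6 member of a cytochrome P450 panel assay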
[10] = target: T3, Rac GTPase-activating protein 1 (Homo sapiens, UniProt Q9H0H5); test: MgcRacGAP GTPase-activating activity inhibitors, confirmation, biochemical, ADP Hunter fluorescence, primary and confirmatory (AID 624330); format: functional
T3 sequence (Q9H0H5 whole entry): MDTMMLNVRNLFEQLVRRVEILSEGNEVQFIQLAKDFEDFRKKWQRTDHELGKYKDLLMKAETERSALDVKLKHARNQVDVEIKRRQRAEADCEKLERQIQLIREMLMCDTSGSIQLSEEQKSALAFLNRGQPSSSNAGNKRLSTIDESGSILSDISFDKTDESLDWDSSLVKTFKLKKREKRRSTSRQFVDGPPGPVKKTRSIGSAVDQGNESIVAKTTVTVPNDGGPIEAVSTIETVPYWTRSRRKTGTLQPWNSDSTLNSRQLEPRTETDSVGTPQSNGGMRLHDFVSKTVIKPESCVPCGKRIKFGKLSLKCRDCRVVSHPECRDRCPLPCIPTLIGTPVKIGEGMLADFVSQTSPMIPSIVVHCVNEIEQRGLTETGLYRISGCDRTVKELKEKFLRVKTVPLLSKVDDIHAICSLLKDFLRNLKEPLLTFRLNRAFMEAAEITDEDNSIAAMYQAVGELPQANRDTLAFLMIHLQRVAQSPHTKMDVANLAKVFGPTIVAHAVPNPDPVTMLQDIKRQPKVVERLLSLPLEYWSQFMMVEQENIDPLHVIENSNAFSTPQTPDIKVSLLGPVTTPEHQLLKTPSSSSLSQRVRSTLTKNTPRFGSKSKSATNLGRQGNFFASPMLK

[11] = test system: H4; test: Luminescence Cell-Based Dose Response HTS to Identify Activators of 5'UTR Stem-Loop Driven Prion Protein mRNA Translation in H4 Neuroglioblastoma Cells. [Related pubchem assays: 1829 (Project Summary), 1814 (Primary HTS)]; format: functional; conditions: Homo sapiens
[12] = inhibitors of intracellular T. cruzi replication, confirmation, NIH3T3 host cells, beta-gal luminescence (AID 2044); format: functional, cell-based;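 note: intracellular parasites grown in NIH/3T3 mouse fibroblasts as host cells; luminescent beta-galactosidase reporter signal from transgenic T. cruzi replicating inside host cells; inhibitors lower the luminescence signal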
[13] = cytotoxicity toward NIH3T3 fibroblasts, dose response, counter-screen, cell-based, ATP luminescence, mouse fibroblasts (AID 2010); format: functional;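 note: cells exposed to compound for about 90 hours before reading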

Cytochrome P450 3A4, sequence (P08684 whole entry): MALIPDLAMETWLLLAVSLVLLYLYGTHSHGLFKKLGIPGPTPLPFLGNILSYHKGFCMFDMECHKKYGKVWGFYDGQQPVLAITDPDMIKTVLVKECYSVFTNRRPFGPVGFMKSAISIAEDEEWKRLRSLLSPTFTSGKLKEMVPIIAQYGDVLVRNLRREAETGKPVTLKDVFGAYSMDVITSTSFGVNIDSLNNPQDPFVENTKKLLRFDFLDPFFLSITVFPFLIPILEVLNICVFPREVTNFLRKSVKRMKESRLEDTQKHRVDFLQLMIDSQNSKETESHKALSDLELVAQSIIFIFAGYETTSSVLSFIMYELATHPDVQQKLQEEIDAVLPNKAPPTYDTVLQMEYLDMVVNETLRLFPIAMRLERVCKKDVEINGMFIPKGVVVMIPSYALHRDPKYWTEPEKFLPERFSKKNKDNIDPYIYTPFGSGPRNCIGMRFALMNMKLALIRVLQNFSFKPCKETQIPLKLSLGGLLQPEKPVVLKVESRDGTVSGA
Cytochrome P450 2C19, sequence (P33261 whole entry): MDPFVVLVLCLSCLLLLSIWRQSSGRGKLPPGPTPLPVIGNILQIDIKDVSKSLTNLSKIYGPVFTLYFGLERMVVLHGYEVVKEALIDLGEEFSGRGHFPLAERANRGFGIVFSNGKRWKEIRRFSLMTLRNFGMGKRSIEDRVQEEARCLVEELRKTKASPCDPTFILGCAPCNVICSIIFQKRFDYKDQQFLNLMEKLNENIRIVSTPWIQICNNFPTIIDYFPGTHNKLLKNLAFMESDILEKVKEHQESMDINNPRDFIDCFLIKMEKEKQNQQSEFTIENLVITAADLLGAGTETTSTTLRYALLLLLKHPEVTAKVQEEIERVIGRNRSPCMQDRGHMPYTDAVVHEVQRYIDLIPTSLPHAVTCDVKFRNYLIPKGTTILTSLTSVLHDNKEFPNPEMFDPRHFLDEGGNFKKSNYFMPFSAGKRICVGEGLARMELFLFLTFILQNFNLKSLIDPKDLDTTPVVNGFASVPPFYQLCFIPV
Cytochrome P450 2C9, sequence (P11712 whole entry): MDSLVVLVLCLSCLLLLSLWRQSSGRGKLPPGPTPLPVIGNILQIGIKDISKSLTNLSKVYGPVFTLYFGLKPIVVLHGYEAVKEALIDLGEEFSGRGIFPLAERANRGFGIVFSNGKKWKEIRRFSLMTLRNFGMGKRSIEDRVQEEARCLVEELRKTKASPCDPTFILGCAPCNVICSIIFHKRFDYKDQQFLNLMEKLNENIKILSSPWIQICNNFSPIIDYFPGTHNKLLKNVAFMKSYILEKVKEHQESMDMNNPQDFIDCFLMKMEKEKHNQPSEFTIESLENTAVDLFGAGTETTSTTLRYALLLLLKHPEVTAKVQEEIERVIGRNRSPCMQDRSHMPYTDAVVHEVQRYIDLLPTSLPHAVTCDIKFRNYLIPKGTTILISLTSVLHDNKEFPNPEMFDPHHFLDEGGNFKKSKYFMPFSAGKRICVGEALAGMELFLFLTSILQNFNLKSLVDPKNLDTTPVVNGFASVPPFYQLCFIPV
Cytochrome P450 2D6, sequence (P10635 whole entry): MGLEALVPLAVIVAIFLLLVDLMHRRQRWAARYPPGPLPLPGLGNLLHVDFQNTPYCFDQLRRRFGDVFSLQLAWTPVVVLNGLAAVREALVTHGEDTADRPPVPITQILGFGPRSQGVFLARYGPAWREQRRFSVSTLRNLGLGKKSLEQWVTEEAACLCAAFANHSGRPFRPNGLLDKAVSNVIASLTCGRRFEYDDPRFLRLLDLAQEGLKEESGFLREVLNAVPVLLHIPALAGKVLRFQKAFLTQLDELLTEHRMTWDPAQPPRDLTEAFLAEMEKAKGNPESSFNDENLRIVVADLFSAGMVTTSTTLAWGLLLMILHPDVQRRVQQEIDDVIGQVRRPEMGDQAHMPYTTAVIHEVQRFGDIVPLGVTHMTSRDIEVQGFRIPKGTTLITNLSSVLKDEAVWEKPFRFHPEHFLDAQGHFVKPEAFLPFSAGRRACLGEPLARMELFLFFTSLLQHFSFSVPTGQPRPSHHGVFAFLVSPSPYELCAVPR

Compound: O=c1[nH]c(=S)[nH]c(-c2ccccc2)c1Cc1c(O)ccc2ccccc12 [CAMBINOL]
- AC50 [1]: 0.0794 µM (inconclusive)
- AC50 [2]: 1 µM (inconclusive)
- AC50 [3]: 0.631 µM (inconclusive)
- AC50 [4]: 7.94 µM (inconclusive)

Compound: COc1ccc(-c2sc3ccccc3c2C#CC2(O)CCCCC2)cc1
- EC50 [5]: 3.52 µM (active)
- EC50 [6]: 6.81 µM (active)
- EC50 [7]: 8.22 µM (active)
- AC50 [8]: 3.73 µM (active)

Compound: Cc1ccc(-n2nnnc2SCC(=O)c2cc(C)n(-c3cc(C)on3)c2C)c(C)c1
- EC50 [5]: 25.6 µM (active)
- EC50 [6]: 89.2 µM (active)
- EC50 [7]: > 150 µM (not active)

Compound: CC(C)c1ccc(C(=O)NC(=S)Nc2ccc3[nH]c(=O)[nH]c3c2)cc1
- EC50 [6]: > 150 µM (not active)

Compound: CCn1c(C)nc2cc(C(=O)NNC(=S)NC(=O)c3ccc(OC)cc3)ccc21
- EC50 [5]: 9.55 µM (active)
- EC50 [6]: > 150 µM (not active)
- EC50 [7]: 95.3 µM (active)

Compound: CN(C)c1ncc2ncc(=O)n(Cc3cccs3)c2n1
- AC50 [9]: 12.6 µM (inconclusive)
- AC50 [3]: 15.8 µM (inconclusive)
- AC50 [4]: 39.8 µM (inconclusive)

Compound: CCN(CC)c1ccc(S(=O)(=O)Nc2cc(Cl)ccc2Cl)cc1NC(=S)NC(=O)C1CCCC1
- AC50 [8]: 1.65 µM (active)

Compound: Cc1sc2ncnc(N3CCC(C(=O)Nc4ccc(Cl)cc4Cl)CC3)c2c1C
- EC50 [5]: 23.6 µM (active)
- EC50 [6]: 91.7 µM (active)
- EC50 [7]: 66 µM (active)

Compound: C/C(N=Nc1ccccc1O)=N\Nc1nc2ccccc2s1
- AC50 [8]: 3.71 µM (active)

Compound: O=C(CN1CCN(S(=O)(=O)c2ccccc2F)CC1)N1CCc2ccccc2C1
- IC50 [10]: 47.1 µM (active)

Compound: C/C(=N\NC(=S)Nc1ccc(F)cc1)c1ccc2c(c1)OCCO2
- AC50 [8]: 1.02 µM (active)

Compound: COc1ccc(C(=O)CSc2[nH]c(=O)cc(C(F)(F)F)c2C#N)cc1
- EC50 [6]: 8.62 µM (active)

Compound: COc1ccccc1C(=O)COC(=O)c1ccc(N(C)C)cc1
- EC50 [11]: 1.79 µM (active)

Compound: CN(CC(=O)Nc1ccccc1Cl)C(=O)c1cccc(-n2cccc2)c1
- AC50 [8]: > 195 µM (inactive)

Compound: CC(C)N1CCN(C(=O)c2cccc(Cl)c2)CC1
- IC50 [10]: 295 µM (active)

Compound: CCC(Nc1cc(OC)ccc1OC)=C1C(=O)NC(=O)NC1=O
- AC50 [1]: 31.6 µM (inconclusive)
- AC50 [3]: 39.8 µM (inconclusive)

Compound: Nc1ccc(OCCc2ccccc2)cc1
- IC50 [10]: 31.2 µM (active)

Compound: CCOC(=O)c1c(-c2ccccc2)csc1NC(=O)c1nn(CC)cc1Br
- EC50 [12]: 2.06 µM (active)
- EC50 [13]: > 60 µM (not active)
- AC50 [8]: 0.506 µM (active)

Compound: CCN1CCN(CC(=O)Nc2nc3ccccc3s2)CC1
- IC50 [10]: 55.7 µM (active)

Compound: O=C(c1cc(-c2cccs2)nc2ccccc12)N1CCN(c2ccccc2O)CC1
- EC50 [5]: 21.8 µM (active)
- EC50 [6]: 144 µM (active)
- EC50 [7]: 54.8 µM (active)

Compound: CCn1c2ccccc2c2cc(NS(=O)(=O)c3ccc(C)cc3)ccc21
- AC50 [8]: 2.87 µM (active)

Compound: Cc1nc(Nc2nc(-c3ccccc3)cc(=O)[nH]2)nc2ccccc12
- EC50 [6]: > 150 µM (not active)

Compound: O=C(c1c(Cl)cccc1Cl)N1CCN(c2cccc3[nH]ccc23)CC1
- IC50 [10]: 50.4 µM (active)

Compound: CCc1ccc(/C=C/c2c([N+](=O)[O-])c(=O)n(C)c(=O)n2C)cc1
- EC50 [5]: 4.55 µM (active)
- EC50 [6]: > 150 µM (not active)
- EC50 [7]: 18 µM (active)

Compound: Oc1ccc2c(ccc3[nH]cnc32)c1
- IC50 [10]: 43.9 µM (active)

Compound: Cc1ccc(-c2nc3nc(O)cc(NC(=O)c4cccs4)n3n2)cc1
- EC50 [5]: 15.4 µM (active)
- EC50 [6]: > 150 µM (not active)
- EC50 [7]: > 150 µM (not active)

Compound: O=C(CSc1nc(-c2ccc(Cl)cc2)nc(=O)[nH]1)Nc1cccc(Cl)c1
- EC50 [6]: 4.65 µM (active)

Compound: O=S(=O)(Nc1cc(O)nc(SCc2ccc(Cl)cc2)n1)c1ccccc1
- AC50 [8]: 4.07 µM (active)

Compound: COc1ccc(CNc2ncc(-c3ccc(Br)cc3)n2C)cc1OC
- IC50 [10]: 55.6 µM (active)

Compound: O=C1CC(=O)N(CCc2ccc(F)cc2)C(=O)N1
- AC50 [1]: 31.6 µM (inconclusive)
- AC50 [3]: 31.6 µM (inconclusive)
- AC50 [4]: 25.1 µM (inconclusive)

Compound: O=c1[nH]c2ccccc2/c(=N\S(=O)(=O)c2ccc(Cl)cc2)n1-c1ccccc1
- AC50 [1]: 25.1 µM (inconclusive)
- AC50 [2]: 8.91 µM (inconclusive)
- AC50 [3]: 2.82 µM (inconclusive)
- AC50 [4]: 0.891 µM (inconclusive)

Compound: CCOC(=O)c1c(N)sc2c(OC)c(Br)ccc12
- IC50 [10]: 203 µM (active)

Compound: NC(=NNC(=O)c1sccc1OCc1ccc(Cl)cc1Cl)c1ccccn1
- EC50 [6]: 35.4 µM (active)

Compound: Cc1cc(NC(=O)c2cnccn2)no1
- EC50 [5]: > 150 µM (not active)
- EC50 [6]: > 150 µM (not active)
- EC50 [7]: > 150 µM (not active)

Compound: Cc1ccc2c(c1)N(CCC(=O)NCCN1CCOCC1)C(=O)CO2
- AC50 [1]: 39.8 µM (inconclusive)
- AC50 [3]: 25.1 µM (inconclusive)
- AC50 [4]: 39.8 µM (inconclusive)

Compound: Cc1ccc(NC(=S)NC(=O)c2ccc(F)cc2)cc1S(=O)(=O)Nc1cccc(Cl)c1
- EC50 [5]: 1.48 µM (active)
- EC50 [6]: 11.5 µM (active)
- EC50 [7]: 54.2 µM (active)

Compound: CCC(=O)NNc1ccc(Br)cc1
- AC50 [8]: 1.82 µM (active)

Compound: CN1CCN(NC(=O)Nc2cc(Cl)cc(Cl)c2)CC1
- EC50 [5]: 6.77 µM (active)
- EC50 [6]: 21.7 µM (active)
- EC50 [7]: > 150 µM (not active)

Compound: CC1=C/C(=N/O)C([C@H]2C=C(C)CC(C)(C)[C@@H]2O)C(C)(C)C1 (some centres not stated)
- AC50 [3]: 5.01 µM (inconclusive)

Compound: CCNc1ncc2nc(-c3cc(F)cc(F)c3)c(=O)n(CCOC)c2n1
- AC50 [3]: 7.94 µM (inconclusive)

Compound: COCc1cc(C)nc(OCC(=O)N/N=C/c2ccc(O)cc2)c1C#N
- IC50 [10]: 83.2 µM (active)

Compound: Cc1ccc(/C(C#N)=C\c2ccc(N3CCOCC3)o2)cc1
- EC50 [12]: 4.37 µM (active)
- EC50 [13]: > 60 µM (inconclusive)
- IC50 [10]: 65.6 µM (active)

Compound: Oc1ccc(Br)cc1CNn1cnnc1
- AC50 [2]: 14.1 µM (inconclusive)
- AC50 [3]: 35.5 µM (inconclusive)
- AC50 [4]: 17.8 µM (inconclusive)

Compound: N#Cc1cccc(NC(=O)N2CC3(CCN(C(=O)c4cc(C(F)(F)F)cc(C(F)(F)F)c4)CC3)C2)c1
- AC50 [9]: 20 µM (inconclusive)
- AC50 [3]: 31.6 µM (inconclusive)

Compound: CC(=O)N1CCC2(CCCN(C(c3ccccc3)c3ccccc3)C2)CC1
- AC50 [3]: 12.6 µM (inconclusive)
- AC50 [4]: 31.6 µM (inconclusive)
